These results are taken from article PMC11091220, “Metabolism-driven in vitro/in vivo disconnect of an oral ERɑ VHL-PROTAC” (Communications Biology, 2024).

This data set relates to uterus. Description: Immature female rat model, uterine weight and histology. In kind it is in vivo. The settings on record: for Uterine weight normalised to body weight (% vehicle): individual animals, listed as AZ'6421. The text has this:
Some endocrine therapies, such as tamoxifen, have been reported to display weak agonistic activity in the endometrium due to altered cofactor recruitment and subsequent activation of gene transcription. We therefore sought to test whether AZ’6421 was a complete antagonist or could act as a partial agonist, in both in vitro and in vivo models. […] Plasma samples were taken 4 hr after the 4th dose, at the same time as the uterus was weighed and sectioned for H&E staining. To further explore whether AZ’6421 may be acting as an agonist in vivo, morphological changes of the uterine were examined: uterine horns were formalin-fixed paraffin-embedded, stained with haematoxylin and eosin and then transverse sections of uterus examined.

“And” between values parts separate entries of the source, which are not always exact repeats. Equal entries are not always repeated.

Take `Cc1ncsc1-c1ccc(CNC(=O)[C@@H]2C[C@@H](O)CN2C(=O)[C@@H](NC(=O)COCCCOCCCOc2cc(F)c([C@@H]3c4[nH]c5ccccc5c4C[C@@H](C)N3CC(C)(C)F)c(F)c2)C(C)(C)C)cc1` [Compound 5]: the “Uterine weight normalised to body weight (% vehicle)” value (30 mg/kg BID) is 100.01% and 167.09% and 162.21% and 134.02% and 93.04%; the “Uterine weight normalised to body weight (% vehicle)” value (100 mg/kg BID) was 147.05% and 110.41% and 107.36% and 113.51% and 133.84%. The uterine weight entry (30 and 100 mg/kg, immature female rat, 4 days) was “trend of increased uterine weight”. Also, under “immature female rat, 4 days dosing”, the “uterine epithelium morphology (H&E)” value is reported as “tall columnar uterine epithelium”.
